From patent US8507199B2, “Multi-color time resolved fluorophores based on macrocyclic lanthanide complexes” (Lumiphore, Inc., priority 2007, dated 2013)
Several values for one entry are separate records, joined by “and”; a condition that tells them apart may be missing. Equal entries are not always repeated.

Tests used:
[1] = Luminescence lifetime decay (biexponential fit) of FITC-Tb-BH22IAM conjugate; format: physicochemical; conditions: Tb-coordinated conjugate, excitation at BH22IAM absorption (~340 nm), emission at 520 nm
Text: A short lifetime corresponding to the direct excitation of fluorescein (3.92 nsec) and a long lifetime corresponding to excitation of BH22IAM and energy transfer to fluorescein (524 nsec).
In another exemplary embodiment, the compounds of the invention emit light at an emission wavelength of the fluorophore attached to the metal chelate through the acceptor-linker. […] For example, compound 3, when coordinated to terbium and excited at a BH22IAM absorption wavelength (˜340 nm), the metal chelate emits at 520 nm, the characteristic wavelength of fluorescein with a lifetime of 524 nsec. The new lifetime is over 100-fold longer than the lifetime for a fluorescein solution that is directly excited (<5 nsec).
The 524 nsec of the conjugated fluorescein is acquired through direct excitation of the Tb-BH22IAM complex at 340 nm, which normally has a very long lifetime (2.6 msec), followed by energy transfer to the conjugated fluorescein and emission at the characteristic wavelength for fluorescein (520 nm).

[2] = Steady-state absorption and emission spectra; format: physicochemical
Text: FIG. 8 is a steady-state absorption spectrum of FITC-BH22IAM conjugate.

## O=C(O)c1cc(NC(=S)NCCCCC2CN3CCNC(=O)c4cccc(c4O)C(=O)NCCN(CCNC(=O)c4cccc(c4O)C(=O)N2)CCN2CCNC(=O)c4cccc(c4O)C(=O)NCCN(CCNC(=O)c4cccc(c4O)C(=O)NCC2)CC3)ccc1-c1c2ccc(=O)cc-2oc2cc(O)ccc12 (stereo not drawn) [Compound 4a]
[1]
  long lifetime corresponding to excitation of BH22IAM and energy transfer to fluorescein: 520 nsec and 524 nsec
[2]; 340 nm assigned to BH22IAM, 490 nm to fluorescein
  absorption maxima: 340 nm and 490 nm
[2]; excitation at BH22IAM absorption (~340 nm)
  emission wavelength / emission maxima: 520 nm
